Source: the supplement of paper PMC13380429

Tests used:
Details in all cases: 72 h
U2OS [1] = test: cell viability relative to DMSO; higher = less toxic
Vero E6 [2] = test: as above
Calu-3 [3] = test: as above
Caco-2 [4] = test: as above
HepG2 [5] = test: as above
U2OS [6] = test: drug sensitivity score (DSS) for viability; higher = more toxic; extreme values may be limits of the assay
Vero E6 [7] = test: as above
Calu-3 [8] = test: as above
Caco-2 [9] = test: as above
HepG2 [10] = test: as above
U2OS [11] = test: relative viability EC50 (midpoint between 100% and the lowest measured viability); higher = less toxic
Vero E6 [12] = test: as above
Calu-3 [13] = test: as above
Caco-2 [14] = test: as above
HepG2 [15] = test: as above

Compound	cell viability (U2OS [1]; 1 nM) [%]	cell viability (U2OS [1]; 10 nM) [%]	cell viability (U2OS [1]; 100 nM) [%]	cell viability (U2OS [1]; 1000 nM) [%]	cell viability (U2OS [1]; 10000 nM) [%]	cell viability (Vero E6 [2]; 1 nM) [%]	cell viability (Vero E6 [2]; 10 nM) [%]	cell viability (Vero E6 [2]; 100 nM) [%]	cell viability (Vero E6 [2]; 1000 nM) [%]	cell viability (Vero E6 [2]; 10000 nM) [%]	cell viability (Calu-3 [3]; 1 nM) [%]	cell viability (Calu-3 [3]; 10 nM) [%]	cell viability (Calu-3 [3]; 100 nM) [%]	cell viability (Calu-3 [3]; 1000 nM) [%]	cell viability (Calu-3 [3]; 10000 nM) [%]	cell viability (Caco-2 [4]; 1 nM) [%]	cell viability (Caco-2 [4]; 10 nM) [%]	cell viability (Caco-2 [4]; 100 nM) [%]	cell viability (Caco-2 [4]; 1000 nM) [%]	cell viability (Caco-2 [4]; 10000 nM) [%]	cell viability (HepG2 [5]; 1 nM) [%]	cell viability (HepG2 [5]; 10 nM) [%]	cell viability (HepG2 [5]; 100 nM) [%]	cell viability (HepG2 [5]; 1000 nM) [%]	cell viability (HepG2 [5]; 10000 nM) [%]	drug sensitivity score (U2OS [6])	drug sensitivity score (Vero E6 [7])	drug sensitivity score (Calu-3 [8])	drug sensitivity score (Caco-2 [9])	drug sensitivity score (HepG2 [10])	relative viability EC50 (U2OS [11]) [µM]	relative viability EC50 (Vero E6 [12]) [µM]	relative viability EC50 (Calu-3 [13]) [µM]	relative viability EC50 (Caco-2 [14]) [µM]	relative viability EC50 (HepG2 [15]) [µM]
Oc1cccc2cccnc12 [oxyquinoline]	101	97.5	103	97.5	100	96	100	94.2	103	90.8	101	114	95.5	104	98.8	109	96.4	84.7	93.2	88.7	119	79.7	110	102	80.9	0	0	0	3.1	0.3	> 10	> 10	> 10	> 10	> 10
N=C(N)NC(=N)NCCc1ccccc1 [phenformin]	95.9	97.6	93.8	98.8	97.1	98.8	95.3	107	98.4	96.4	90.2	100	96.5	98.8	102	86.7	101	93.7	91.8	81.5	106	101	102	98	85.8	0	0	0	0.5	0.3	> 10	> 10	> 10	> 10	> 10
CNC[C@H](O)c1cccc(O)c1 [phenylephrine]	98.9	96.1	98.9	102	101	96.6	99.7	95.6	93.5	102	103	92.5	95.7	98.9	97.5	99.2	91	96.4	92.4	99.7	98.7	101	99.1	93.5	111	0	0	0	0	0	> 10	> 10	> 10	> 10	> 10
O=C(Nc1cccc2c(=O)cc(-c3nnn[nH]3)oc12)c1ccc(OCCCCc2ccccc2)cc1 [pranlukast]	96.7	97.2	94.3	98.6	95.2	99.6	94.4	93.8	97.1	96	102	111	93.1	96.8	88.9	94.1	91.3	94.6	99.1	86.7	95.7	95.6	104	101	99.9	0	0	0	0	0	> 10	> 10	> 10	> 10	> 10
CC(=O)[C@H]1CC[C@H]2[C@@H]3CC=C4C[C@@H](OC(=O)CCC(=O)O)CC[C@]4(C)[C@H]3CC[C@]12C [pregnenolone-succinate]	101	94.7	100	97.9	99.9	94.1	96.8	88.7	97.3	107	89.8	95.1	93.7	94.1	113	90.5	97.4	110	94.2	87.7	93.3	93.8	94.4	95	97	0	0	0	0.3	0	> 10	> 10	> 10	> 10	> 10
CNNCc1ccc(C(=O)NC(C)C)cc1 [procarbazine]	96	103	96.4	98.7	106	103	93.2	102	89	102	92.2	99.3	97.4	102	90.8	98.2	105	96.2	101	87.4	103	87.7	93.3	112	110	0	0	0	0	0	> 10	> 10	> 10	> 10	> 10
Cc1cc(/C=C/c2ccc3cc(N(C)C)ccc3[n+]2C)c(C)n1-c1ccccc1 [pyrvinium-pamoate]	107	106	103	60	3.8	106	97.4	100	78	10.6	105	101	99.3	63	9.3	107	93	102	46.9	13.3	104	110	98	42	9.6	10.6	8.4	9.9	11.1	11.9	1.15	1.56	1.16	0.834	0.745
